From patent publication US7071231B2, “Naphthalene ureas as glucose uptake enhancers” (Telik, Inc., priority 1999, dated 2006)
Structures can show the parent of a compound that is named as a salt.

Each molecule was assayed on 3T3 L1 fibroblasts (assay: Glucose transport activity assay (14C-2-deoxy-D-glucose uptake)). Details: EC (effective concentration) for increase in glucose transport; 14C-2-deoxy-D-glucose, 3T3 L1 cells; read-out: Concentration (μM) to reach >150% activity of vehicle control.
Type: cell-based
Description: Glucose Transport Activity Assay.
Stimulation of the insulin receptor leads to the transport of glucose from the blood into cells, thus modulating blood glucose levels. 3T3 L1 fibroblasts (ATCC) were grown in Dulbecco's modified Eagle's medium (DMEM) with 10% fetal bovine serum (FBS). The cells were plated at a density of 3×10^4 cells/well in 24-well plates. Two days after confluence was reached, the cells were treated for 3 days with 0.5 mM isobutylmethylxanthine (IBMX), 1 μM dexamethasone, and 1.7 μM insulin. The cells were then transferred to DMEM with 10% FBS and supplemented with 1.7μM insulin for 2 more days. The cells were maintained in DMEM with 10% FBS for an additional 4 days. Finally the cells were serum-starved overnight in 0.1% bovine serum albumin (BSA) in DMEM.
The following day, the medium was replaced with 150 mM NaCl, 1.7 mM KCl, 0.9 mM CaCl2, K2HPO4 (pH 7.4) to which were added either the experimental compounds or their vehicle (DMSO). Insulin or its vehicle (0.01% BSA) was diluted in the assay buffer (containing test compound or vehicle, respectively) to final concentration of […]. After incubation for 30 min at 37° C., 5 μCi/ml ^14C-2-deoxy-D-glucose was added, and the incubation was continued for additional 30 min at 37° C. The cells were then washed 3 times with ice-cold PBS/20 mM glucose and lysed in 250 μl of lysis buffer (50 mM HEPES pH 7.6, 1% Triton X-100) for 30 min at room temperature. Radioactivity in the lysate was quantified by scintillation counting.
Once ^14C-2-deoxy-D-glucose is transported into the cell, it is not released. Glucose transport is, therefore, proportional to the amount of radioactivity in the lysate. The concentration of compound necessary to produce an increase in glucose transport to greater than 150% of the vehicle control (generally representing the sum of the standard deviation of the vehicle control plus the largest standard deviation of a test sample) was recorded as the EC (effective concentration). Shown in FIG. 3 is glucose uptake by cells at various concentrations when treated with Compound 13 and Compound 15.

| SMILES | EC (150% of vehicle control) [µM] |
| --- | --- |
| CN=C(Nc1ccc2ccc(NS(=O)(=O)c3ccc(Cl)c(C(=O)OC)c3)cc2c1)Nc1ccc2ccc(NS(=O)(=O)c3ccc(Cl)c(C(=O)OC)c3)cc2c1 [Compound 161, methyl 5-[({7-[((1E)-2-aza-1-{[7-({[4-chloro-3-(methoxycarbonyl)phenyl]sulfonyl}amino)(2-naphthyl)]amino}prop-1-enyl)amino](2-naphthyl)}amino)sulfonyl]-2-chlorobenzoate] | >32 |
| CN=C(Nc1ccc2ccc(NS(=O)(=O)c3ccc(Cl)c(C(=O)O)c3)cc2c1)Nc1ccc2ccc(NS(=O)(=O)c3ccc(Cl)c(C(=O)O)c3)cc2c1 [Compound 162, 5-({[7-({(1E)-2-aza-1-[(7-{[(3-carboxy-4-chlorophenyl)sulfonyl]amino}(2-naphthyl))amino]prop-1-enyl}amino)(2-naphthyl)]amino}sulfonyl)-2-chlorobenzoic acid] | >32 |
| COC(=O)c1cc(S(=O)(=O)Nc2ccc3ccc(NC(=NC#N)Nc4ccc5ccc(NS(=O)(=O)c6ccc(Cl)c(C(=O)OC)c6)cc5c4)cc3c2)ccc1Cl [Compound 165, methyl 5-[({7-[((1E)-2-aza-1-{[7-({[4-chloro-3-(methoxycarbonyl)phenyl]sulfonyl}amino)(2-naphthyl)]amino}-2-cyanovinyl)amino](2-naphthyl)}amino)sulfonyl]-2-chlorobenzoate] | 3.2 |
| N#CN=C(Nc1ccc2ccc(NS(=O)(=O)c3ccc(Cl)c(C(=O)O)c3)cc2c1)Nc1ccc2ccc(NS(=O)(=O)c3ccc(Cl)c(C(=O)O)c3)cc2c1 [Compound 166, 5-({[7-({(1E)-2-aza-1-[(7-{[(3-carboxy-4-chlorophenyl)sulfonyl]amino}(2-naphthyl))amino]-2-cyanovinyl}amino)(2-naphthyl)]amino}sulfonyl)-2-chlorobenzoic acid] | 3.2 |
| C=CCN=C(Nc1ccc2ccc(NS(=O)(=O)c3ccc(Cl)c(C(=O)OC)c3)cc2c1)Nc1ccc2ccc(NS(=O)(=O)c3ccc(Cl)c(C(=O)OC)c3)cc2c1 [Compound 167, methyl 5-[({7-[((1E)-2-aza-1-{[7-({[4-chloro-3-(methoxycarbonyl)phenyl]sulfonyl}amino)(2-naphthyl)]amino}penta-1,4-dienyl)amino](2-naphthyl)}amino)sulfonyl]-2-chlorobenzoate] | >32 |
| C=CCN=C(Nc1ccc2ccc(NS(=O)(=O)c3ccc(Cl)c(C(=O)O)c3)cc2c1)Nc1ccc2ccc(NS(=O)(=O)c3ccc(Cl)c(C(=O)O)c3)cc2c1 [Compound 168, 5-({[7-({(1E)-2-aza-1-[(7-{[(3-carboxy-4-chlorophenyl)sulfonyl]amino}(2-naphthyl))amino]penta-1,4-dienyl}amino)(2-naphthyl)]amino}sulfonyl)-2-chlorobenzoic acid] | >32 |

Same assay, conditions: Mus musculus, 3T3-L1, read-out: Concentration (μM) to reach >150% activity of vehicle control

| SMILES | EC (150% of vehicle control) [µM] |
| --- | --- |
| O=C(Nc1ccc2ccc(S(=O)(=O)Nc3cccc([N+](=O)[O-])c3)cc2c1)Nc1ccc2ccc(S(=O)(=O)Nc3cccc([N+](=O)[O-])c3)cc2c1 [Compound 84, N-(7-{[(3-nitrophenyl)amino]sulfonyl}(2-naphthyl))[(7-{[(3-nitrophenyl)amino]sulfonyl}(2-naphthyl))amino]carboxamide] | 3.2 |
| CN(c1cccc(S(=O)(=O)O)c1)S(=O)(=O)c1ccc2ccc(NC(=O)Nc3ccc4ccc(S(=O)(=O)N(C)c5cccc(S(=O)(=O)O)c5)cc4c3)cc2c1 [Compound 103, 3-{methyl[(7-{[(7-{[methyl(3-sulfophenyl)amino]sulfonyl}(2-naphthyl))amino]-carbonylamino}-(2-naphthyl))sulfonyl]amino}benzenesulfonic acid dipotassium salt] | 3.2 |

Same assay, conditions: Mus musculus; EC (effective concentration) for increase in glucose transport; 14C-2-deoxy-D-glucose, 3T3 L1 cells; read-out: Concentration (μM) to reach >150% activity of vehicle control

| SMILES | EC (150% of vehicle control) [µM] |
| --- | --- |
| O=C(Nc1ccc2ccc(S(=O)(=O)Nc3cccc(O)c3)cc2c1)Nc1ccc2ccc(S(=O)(=O)Nc3cccc(O)c3)cc2c1 [Compound 81, N-(7-{[(3-hydroxyphenyl)amino]sulfonyl}(2-naphthyl))[(7-{[(3-hydroxyphenyl)amino]sulfonyl}(2-naphthyl))amino]carboxamide] | 3.2 |
| O=C(Nc1ccc2c(O)cc(S(=O)(=O)Nc3cccc(CO)c3)cc2c1)Nc1ccc2c(O)cc(S(=O)(=O)Nc3cccc(CO)c3)cc2c1 [Compound 82, N-[5-hydroxy-7-({[3-(hydroxymethyl)phenyl]amino}sulfonyl)(2-naphthyl)]{[5-hydroxy-7-({[3-(hydroxymethyl)phenyl]amino}sulfonyl)(2-naphthyl)]amino}carboxamide] | 3.2 |
| N#Cc1cccc(NS(=O)(=O)c2ccc3ccc(NC(=O)Nc4ccc5ccc(S(=O)(=O)Nc6cccc(C#N)c6)cc5c4)cc3c2)c1 [Compound 83, N-(7-{[(3-cyanophenyl)amino]sulfonyl}(2-naphthyl))[(7-{[(3-cyanophenyl)amino]sulfonyl}(2-naphthyl))amino]carboxamide] | 3.2 |
| O=C(Nc1ccc2ccc(S(=O)(=O)Nc3ccc(Cl)c(CO)c3)cc2c1)Nc1ccc2ccc(S(=O)(=O)Nc3ccc(Cl)c(CO)c3)cc2c1 [Compound 85, N-[7-({[4-chloro-3-(hydroxymethyl)phenyl]amino}sulfonyl)(2-naphthyl)]{[7-({[4-chloro-3-(hydroxymethyl)phenyl]amino}sulfonyl)(2-naphthyl)]amino}carboxamide] | 32 |
| O=C(Nc1ccc2c(O)cc(S(=O)(=O)Nc3cccc(C(F)(F)F)c3)cc2c1)Nc1ccc2c(O)cc(S(=O)(=O)Nc3cccc(C(F)(F)F)c3)cc2c1 [Compound 88, N-[5-hydroxy-7-({[3-(trifluoromethyl)phenyl]amino}sulfonyl)(2-naphthyl)]{[5-hydroxy-7-({[3-(trifluoromethyl)phenyl]amino}sulfonyl)(2-naphthyl)]amino}carboxamide] | > 32 |
| O=C(Nc1ccc2ccc(S(=O)(=O)O)cc2c1)Nc1ccc2ccc(S(=O)(=O)Nc3ccc(Cl)c(S(=O)(=O)O)c3)cc2c1 [Compound 90, 7-{[(7-{[(4-chloro-3-sulfophenyl)amino]sulfonyl}-2-naphthyl)amino]carbonylamino}naphthalene-2-sulfonic acid] | 3.2 |
| O=C(Nc1ccc2ccc(S(=O)(=O)Nc3ccc(Cl)c(S(=O)(=O)O)c3)cc2c1)Nc1ccc2ccc(S(=O)(=O)Nc3ccc(Cl)c(S(=O)(=O)O)c3)cc2c1 [Compound 91, 2-chloro-5-{[(7-{[(7-{[(4-chloro-3-sulfophenyl)amino]sulfonyl}(2-naphthyl))amino]carbonylamino}(2-naphthyl))sulfonyl]amino}benzenesulfonic acid] | 3.2 |
| O=C(Nc1ccc2ccc(S(=O)(=O)Nc3cccc(S(=O)(=O)O)c3)cc2c1)Nc1ccc2ccc(S(=O)(=O)Nc3cccc(S(=O)(=O)O)c3)cc2c1 [Compound 114, 3-{[(7-{[N-(7-{[(3-sulfophenyl)amino]sulfonyl}-2-naphthyl)carbamoyl]amino}-2-naphthyl)sulfonyl]amino}benzenesulfonic acid disodium salt] | 3.2 |
| O=C(Nc1ccc2ccc(C(=O)Nc3cccc(C(=O)O)c3)cc2c1)Nc1ccc2ccc(C(=O)Nc3cccc(C(=O)O)c3)cc2c1 [Compound 116, 3-({7-[({7-[N-(3-carboxyphenyl)carbamoyl]-2-naphthyl}amino)carbonylamino]-2-naphthyl}carbonylamino)benzoic acid] | > 32 |
| O=C(Nc1ccc2ccc(NS(=O)(=O)c3cccc(C(=O)O)c3)cc2c1)Nc1ccc2ccc(NS(=O)(=O)c3cccc(C(=O)O)c3)cc2c1 [Compound 129, 3-{[(7-{[N-(7-{[(3-carboxyphenyl)sulfonyl]amino}-2-naphthyl)carbamoyl]amino}-2-naphthyl)amino]sulfonyl}benzoic acid] | 32 |
| COC(=O)c1cc(NS(=O)(=O)c2ccc3ccc(NC(=S)Nc4ccc5ccc(S(=O)(=O)Nc6ccc(Cl)c(C(=O)OC)c6)cc5c4)cc3c2)ccc1Cl [Compound 157, methyl 2-chloro-5-[({7-[({[7-({[4-chloro-3-(methoxycarbonyl)phenyl]amino}sulfonyl)(2-naphthyl)]amino}thioxomethyl)amino](2-naphthyl)}sulfonyl)amino]benzoate] | > 32 |
| COC(=O)c1cc(NS(=O)(=O)c2ccc3ccc(/N=C(/Nc4ccc5ccc(S(=O)(=O)Nc6ccc(Cl)c(C(=O)OC)c6)cc5c4)SC)cc3c2)ccc1Cl [Compound 158, methyl 5-({[7-((1Z)-1-aza-2-{[7-({[4-chloro-3-(methoxycarbonyl)phenyl]amino}sulfonyl)(2-naphthyl)]amino}-2-methylthiovinyl)(2-naphthyl)]sulfonyl}amino)-2-chlorobenzoate] | > 32 |
